Results taken from patent US20100047321A1, “SILVER ANTIMICROBIAL COMPOSITION AND USE” (priority 2008, published 2010).

Columns and labels:
[1] = Settling test of redispersed aqueous silver chloride/gelatin dispersion (silver assay of top samples); type: physicochemical; conditions: redispersal and testing after storage at 40° C. for 5 days
Procedure: Samples were analyzed for silver content using an Automated Thioacetamide Titration system (ATT) to assay silver ion (Ag^+) present in silver containing compounds by a potentiometric titration. Silver chloride grains, which have been solubilized in a solution of thiosulfate, sodium hydroxide and gelatin, are titrated with thioacetamide to precipitate silver sulfide. The end-point of the titration is monitored potentiometrically using a silver sulfide-coated silver billet indicator electrode.
[…] To test for settling, the stirring was stopped and a 10 ml portion was removed from the top of the aliquot (time=0 sample).
Additional samples were taken in a similar manner from the unstirred aliquot at 10 minute, 30 minute, and 60 minute intervals. By comparing the theoretical silver chloride concentration (measured on a sample taken from the vigorously stirred dispersion at the conclusion of the precipitation), assuming a perfectly dispersed solution, with that determined by the ATT assay for each sample taken from the top of the aliquot, it is possible to determine the amount of AgCl product that had settled in a given time interval.
The following TABLE I contains the settling data for Invention Examples 1-7 and Comparative Examples 1-10. The settling is evaluated by comparing the silver assay results for samples taken from the top of the aliquot at time=0 or later, to the theoretical silver concentration, such that percent settle is defined by the expression (Theoretical [Ag]−Silver Assay(time))/(Theoretical [Ag]))×100.

Source text for pKa of additive: The storage stability additives used in the compositions of this invention are N-heterocyclic acids each having a pKa of from about 4 to about 9 or from about 4.5 to about 8.5, or from about 4.8 to about 8.0.

CC(=O)Nc1cccc(-n2[nH]nnc2=S)c1 [APMT, acetamide, N-(3-(2,5-dihydro-5-thioxo-1H-tetrazol-1-yl)phenyl)-, reference compound]
pKa (pKa of additive): 3.3 | Effectiveness of additive in reducing settling [1]: ineffective

Cc1nc2ncnn2c(O)c1Br [Br-TAI, (1,2,4)triazolo(1,5-a)pyrimidin-7-ol, 6-bromo-5-methyl-]
pKa (pKa of additive): 4.8 | Effectiveness of additive in reducing settling [1]: remarkably effective

O=[N+]([O-])c1cc(Cl)cc2[nH]nnc12 [CN-BZT, 6-chloro-4-nitro-1H-benzotriazole]
pKa (pKa of additive): 6 | Effectiveness of additive in reducing settling [1]: remarkably effective

CSc1nc2nc(C)cc(O)n2n1 [SMe-TAI, (1,2,4)triazolo(1,5-a)pyrimidin-7-ol, 5-methyl-2-(methylthio)-]
pKa (pKa of additive): 6.2 | Effectiveness of additive in reducing settling [1]: remarkably effective

O=C1NS(=O)(=O)c2ccccc21 [Saccharin, saccharin, reference compound]
Additive pKa (pKa of additive): 1.8 | pKa (pKa of additive): 1.8 | Effectiveness of additive in reducing settling [1]: ineffective

O=C1CCC(=O)N1 [Succinimide, succinimide, reference compound]
pKa (pKa of additive): 9.4 | Effectiveness of additive in reducing settling [1]: ineffective

Cc1cc(O)n2ncnc2n1.[Na] [TAI, (1,2,4)triazolo(1,5-a)pyrimidin-7-ol, 5-methyl-, sodium salt]
pKa (pKa of additive): 6.2 | Effectiveness of additive in reducing settling [1]: remarkably effective

O=c1cc[nH]c(=O)[nH]1 [Uracil, uracil, reference compound]
pKa (pKa of additive): 9.2 | Effectiveness of additive in reducing settling [1]: ineffective

O=c1[nH][nH]c(=O)[nH]1 [Urazole, urazole]
pKa (pKa of additive): 5.8 | Effectiveness of additive in reducing settling [1]: remarkably effective

O=c1[nH]c(=O)c2[nH]c(=O)[nH]c2[nH]1 [Uric acid, uric acid]
pKa (pKa of additive): 5.8 | Effectiveness of additive in reducing settling [1]: remarkably effective

methyl-1H-benzotriazole [Me-BZT]
Effectiveness of additive in reducing settling [1]: remarkably effective
